Where two headings read alike, the source gives them in different places.
Legend:
[1] = target: human MCH-1 receptor (Homo sapiens (Human), UniProt Q99705); test: Binding Assay for Human Melanin-Concentrating Hormone (MCH-1) Receptor (radioligand displacement, CHO-K1 membranes); conditions: membranes from CHO-K1 cells expressing human MCH1 receptor, [3H]-labeled radioligand, Ki from IC50 by Cheng Prusoff
Experimental: Evaluation of the affinity of compounds for the human MCH-1 receptor was accomplished using 4-(3,4,5-tritritiumbenzyloxy)-1-(1-(2-(pyrrolidin-1-yl)ethyl)-1H-indazol-5-yl)pyridin-2(1H)-one and membranes prepared from stable CHO-K1 cells expressing the human MCH1 receptor obtained from Euroscreen (Batch 1138). Cell membrane homogenates (8.92 μg protein) were incubated for 60 min at 25° C. with […] of the [^3H]-labeled compound in the absence or presence of the test compound in 50 mM Tris-HCl buffer, pH 7.4. Nonspecific binding was determined in the presence of 50 μM 1-(5-(4-cyanophenyl)bicyclo[3.1.0]hexan-2-yl)-3-(4-fluoro-3-(trifluoromethyl)phenyl)-1-(3-(4-methylpiperazin-1-yl)propyl)urea. Following incubation, the samples were filtered rapidly under vacuum through Skatron 11731 filters, pre-soaked in 0.5% polyethylenimine, and washed with ice-cold 50 mM Tris-HCl buffer, pH 7.4, (wash setting 9,9,0) using a Skatron cell harvester. The filters were counted for radioactivity in a liquid scintillation counter (Tri-Carb 2100TR, Packard) using a scintillation cocktail (Ultima Gold MV, Perkin Elmer).
The results are expressed as a percent inhibition of the control radioligand specific binding. The IC50 value (concentration causing a half-maximal inhibition of control specific binding) and Hill coefficient (nH) were determined by non-linear regression analysis of the competition curve using Hill equation curve fitting. The inhibition constant (Ki) was calculated from the Cheng Prusoff equation: (Ki=IC50/(1+(L/KD)), where L=concentration of radioligand in the assay, and KD=affinity of the radioligand for the receptor.

human MCH-1 receptor, sequence (Q99705 whole entry): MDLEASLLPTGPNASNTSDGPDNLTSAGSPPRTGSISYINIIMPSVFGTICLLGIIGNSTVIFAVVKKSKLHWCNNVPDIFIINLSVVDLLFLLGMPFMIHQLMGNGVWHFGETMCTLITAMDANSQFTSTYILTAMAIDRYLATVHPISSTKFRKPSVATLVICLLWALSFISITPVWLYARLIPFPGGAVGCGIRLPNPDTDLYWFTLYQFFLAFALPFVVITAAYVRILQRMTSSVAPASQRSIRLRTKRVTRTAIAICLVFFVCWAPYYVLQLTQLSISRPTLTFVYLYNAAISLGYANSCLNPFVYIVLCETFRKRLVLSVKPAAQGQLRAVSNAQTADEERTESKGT

| SMILES | melting point | Ki ([1]; read-out: MCH-1 Ki) | Ki ([1]; MCH-1 Ki (nM)) |
| --- | --- | --- | --- |
| Cl.O=c1cc(OCc2ccccc2)ccn1-c1ccc2c3c([nH]c2c1)CC1CCC3N1 (stereo not drawn) [Example 8, 4-(Benzyloxy)-1-(5,6,7,8,9,10-hexahydro-7,10-iminocyclohept[b]indol-3-yl)pyridin-2(1H)-one hydrochloride] | 209 to 214 °C | 9.8 nM | – |
| CN1C2CCCC1c1c(n(C)c3cc(-n4ccc(OCc5ccccc5)cc4=O)ccc13)C2.Cl (stereo not drawn) [Example 31, 4-(Benzyloxy)-1-(5,12-dimethyl-6,7,8,9,10,11-hexahydro-7,11-imino-5H-cyclooct[b]indol-3-yl)pyridin-2(1H)-one hydrochloride] | 161 to 180 °C | 14 nM | – |
| Cc1ccc(COc2cnn(-c3ccc4c5c(n(C)c4c3)CC3CCCC5N3)c(=O)c2)cn1.Cl (stereo not drawn) [Example 18, 2-(5-Methyl-6,7,8,9,10,11-hexahydro-7,11-imino-5H-cyclooct[b]indol-3-yl)-5-((6-methylpyridin-3-yl)methoxy)pyridazin-3(2H)-one hydrochloride] | 190 to 200 °C | 73 nM | – |
| Cl.O=c1cc(OCc2ccccn2)ccn1-c1ccc2c3c([nH]c2c1)CC1CCC3N1 (stereo not drawn) [Example 22, 1-(5,6,7,8,9,10-Hexahydro-7,10-iminocyclohept[b]indol-3-yl)-4-((pyridin-2-yl)methoxy)pyridin-2(1H)-one hydrochloride] | 220 to 230 °C | 25 nM | – |
| CN1C2CCC1c1c(n(C)c3cc(-n4ccc(OCc5ccccc5)cc4=O)ccc13)C2.Cl (stereo not drawn) [Example 26, 4-(Benzyloxy)-1-(5,11-dimethyl-5,6,7,8,9,10-hexahydro-7,10-iminocyclohept[b]indol-3-yl)pyridin-2(1H)-one hydrochloride] | 121 to 128 °C | 9.7 nM | – |
| Cl.Cn1c2c(c3ccc(-n4ccc(OCc5ccc(C(F)(F)F)nc5)cc4=O)cc31)C1CCCC(C2)N1 (stereo not drawn) [Example 19, 1-(5-Methyl-6,7,8,9,10,11-hexahydro-7,11-imino-5H-cyclooct[b]indol-3-yl)-4-((6-(trifluoromethyl)pyridin-3-yl)methoxy)pyridin-2 (1H)-one hydrochloride] | 240 to 250 °C | 13 nM | – |
| CC(=O)N1C2CCC1c1c(n(C)c3cc(-n4ccc(OCc5ccccc5)cc4=O)ccc13)C2 (stereo not drawn) [Example 27, 1-(11-Acetyl-5-methyl-5,6,7,8,9,10-hexahydro-7,10-iminocyclohept[b]indol-3-yl)-4-(benzyloxy)pyridin-2(1H)-one] | 91 to 96 °C | 131 nM | – |
| Cl.O=c1cc(-c2ccc(C(F)(F)F)nc2)ccn1-c1ccc2c3c([nH]c2c1)CC1CCC3N1 (stereo not drawn) [Example 10, 1-(5,6,7,8,9,10-Hexahydro-7,10-iminocyclohept[b]indol-3-yl)-4-(6-(trifluoromethyl)pyridin-3-yl)pyridin-2(1H)-one hydrochloride] | 215 to 235 °C (dec.) | 22.7 nM | – |
| Cl.O=c1cc(OCc2ccccc2)ccn1-c1ccc2c3c([nH]c2c1)CC1CCC3N1 (single isomer, unassigned; enantiomer b) [Example 20, (−)-4-(Benzyloxy)-1-(5,6,7,8,9,10-hexahydro-7,10-iminocyclohept[b]indol-3-yl)pyridin-2(1H)-one hydrochloride (Enantiomer B)] | 211 to 217 °C | – | 9.3 nM |

Source: patent publication US8629158B2, “Azabicycloalkane-indole and azabicycloalkane-pyrrolo-pyridine MCH-1 antagonists, methods of making, and use thereof” (Albany Molecular Research, Inc., priority 2009, dated 2014)
